Measured values taken from patent EP3748362A1, “IN VITRO METHOD FOR DETECTING RENAL DISEASE” (Fundacion Instituto De Investigacion Sanitaria Fundacion …, priority 2019, dated 2020).

Assays:
NF-κB2 [1] = test: Non-canonical NF-κB2 activation and NF-κB2 targets in obstructed kidneys (UUO) in mice; type: in vivo; settings: paricalcitol 750 ng/kg/day
Experimental: (§1) All animal procedures were performed according to the guidelines of animal research in the European Community and with prior approval by the Ethics Committee of the Health Research of the IIS-Fundacion Jiménez Díaz. For in vivo studies, mice received a daily intraperitoneal injection of the VDRA Paricalcitol starting 48 hours prior to induction of kidney damage.
(§2) At the time of sacrifice, animals were anesthetized with 5 mg/kg xylazine (Rompun, Bayer AG) and 35 mg/kg ketamine (Ketolar, Pfizer) and the kidneys perfused in situ with cold saline before removal. Then, kidney portions were fixed in formalin buffer for immunohistochemistry studies or immediately frozen in liquid nitrogen for gene and protein studies.
Unilateral ureteral obstruction (UUO) was established in male C57BL/6 mice, under isoflurane-induced anesthesia. The left ureter was ligated with silk (5/0) at two locations and cut between ligatures to prevent urinary tract infection (obstructed kidney).(Ucero et al 2014; Rodrigues-Díez et al 2013) Two groups were studied; untreated or paricalcitol treated (750 ng/kg/day, i.p., Abbot), n=6-8 mice per group, starting 48 hours before surgery. Studies compared both kidneys (contralateral vs. obstructed) in each mouse.
Paraffin-embedded kidney sections (3 µm) were stained using conventional methods. […] For each sample (processed by duplicate in a blinded manner), the average value was obtained from the analysis of 4 fields (20X objective) as density/mm2 or percentage stained area vs total analyzed area. Data are expressed as fold increase over control mice, as mean ± SEM of 8-10 animals per group. […]
(§3) For western blot, cell (25 µg/lane) and kidney (100-150 µg/lane) protein extracts were separated on 6%-12% polyacrylamide-SDS gels under reducing conditions. […] Autoradiographs were scanned using the Gel Doc™ EZ imager and analyzed with the Image Lab 3.0 software (BioRad). […]

NF-κB2 [2] = test: NF-κB2 activation (p52 western blot) in MARSS gene silenced HK2 cells stimulated with TWEAK; type: cell-based, Human; settings: paricalcitol 15 µmol/L 48 hours, TWEAK 100 ng/ml
Experimental: Human kidney proximal tubule epithelial cells (HK2 cell line, ATCC CRL-2190) were grown in RPMI 1640 with 10% fetal bovine serum (FBS), 1% glutamine, 100 U/ml penicillin, 100 µg/ml streptomycin, 5 µg/ml insulin-transferrin-selenite and 36 ng/ml hydrocortisone in 5% CO2 at 37° C. When cells reached 60 to 70% confluence, they were serum-depleted for 24 hours before the experiment.
Cells were stimulated with 100ng/ml recombinant human soluble TWEAK (Millipore) or p-200 µg/ml cresyl-sulfate (Raymond Vanholder and Griet Glorieux, University of Gent, Belgium). Concentrations of TWEAK and p-cresyl-sulfate were based on previously published dose-response experiments (Poveda et al. 2014; Sanz et al. 2008). […] DMSO, used as a solvent in some cases, had no effect on cell viability or on gene expression levels.
as §3

TRAF3 = test: Renal TRAF3 (western blot), folic acid-induced renal injury in mice; type: in vivo; settings: folic acid 300 mg/kg model; paricalcitol 25 µg/kg/day i.p.
Experimental: as §1, §2
Folic acid nephropathy is a classical model of kidney tubulointerstitial injury and inflammation that has been reported in humans. Mice received a single intraperitoneal injection of folic acid (Sigma) 300 mg/kg in 0.3 mol/l sodium bicarbonate or vehicle, and were sacrificed 48 hours later. […]
For western blot, cell (25 µg/lane) and kidney (100-150 µg/lane) protein extracts were separated on 6%-12% polyacrylamide-SDS gels under reducing conditions. […] Autoradiographs were scanned using the Gel Doc™ EZ imager and analyzed with the Image Lab 3.0 software (BioRad).

C[C@H](/C=C/[C@H](C)C(C)(C)O)[C@H]1CC[C@H]2/C(=C/C=C3C[C@@H](O)C[C@H](O)C3)CCC[C@]12C [paricalcitol]
increased RelB levels and its nuclear localization (NF-κB2 [1]): prevented | p100/p52 processing, and p52 nuclear translocation and DNA binding activity (NF-κB2 [1]): blocked | increased expression of specific NF-κB2-regulated chemokines, including CCL21A and CCL19 (NF-κB2 [1]; real time PCR): prevented | TWEAK-induced NF-κB2 activation (NF-κB2 [2]): diminished | renal TRAF3 protein levels (TRAF3): restored renal TRAF3 protein levels to values of control mice
